According to the supplement of paper PMC10627819:

Key:
B. subtilis 168 [1] = experiment: fitness (endpoint OD595 vs no drug) (fraction); higher = more growth
Summary of the method: (§1)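 Cultures at OD595 0.01 were dispensed into 384-well plates in TSB, LB Lennox or CY and incubated at 37 °C. Every 30 min for 14 h, OD595 was read and corrected by the first reading. Fitness is the optical density at entry into stationary phase relative to the robust mean of no-drug control wells, capped at 1.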

S. aureus DSM 20231 [2] = experiment: as above
Summary of the method: as §1

S. aureus Newman [3] = experiment: as above; conditions: first compound 0.0075 µg/mL
Summary of the method: as §1

S. pneumoniae D39V [4] = experiment: as above
Summary of the method: as §1

B. subtilis 168 [5] = experiment: Bliss interaction score (quartile over a dose matrix) (fitness difference); higher = more antagonism (negative = synergy)
Summary of the method: (§2)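 Each plate was normalised to the robust mean of its own no-drug wells, using OD595 at entry into stationary phase, with values capped at 1. This normalised growth is the fitness value. The Bliss score is the difference between observed and product-expected fitness, with single-drug fitness inferred from the combination data and quartiles taken over technical, biological and donor/recipient replicates.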

S. aureus DSM 20231 [6] = experiment: as above
Summary of the method: as §2

S. aureus Newman [7] = experiment: as above
Summary of the method: as §2

S. pneumoniae D39V [8] = experiment: as above
Summary of the method: as §2
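For Bliss interaction score (quartile over a dose matrix) in this document: first quartile when negative (synergy) and third quartile when positive (antagonism).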

`COc1c(N2C[C@@H]3CCCN[C@@H]3C2)c(F)cc2c(=O)c(C(=O)O)cn(C3CC3)c12` [Moxifloxacin] + CCN(CC)CCOC(=O)c1ccc(N)cc1 [Procaine] gave a fitness (B. subtilis 168 [1]; first compound 0.0312 µg/mL, partner 85.5 µg/mL) of 0.0464, a fitness (B. subtilis 168 [1]; first compound 0.0312 µg/mL, partner 171 µg/mL) of 0.0462 and a fitness (B. subtilis 168 [1]; first compound 0.0312 µg/mL, partner 342 µg/mL) of 0.0422. It also gave a fitness (B. subtilis 168 [1]; first compound 0.0625 µg/mL, partner 85.5 µg/mL) of 0.051, a fitness (B. subtilis 168 [1]; first compound 0.0625 µg/mL, partner 171 µg/mL) of 0.0447 and a fitness (B. subtilis 168 [1]; first compound 0.0625 µg/mL, partner 342 µg/mL) of 0.0546. For the same compound, the fitness (B. subtilis 168 [1]; first compound 0.125 µg/mL, partner 85.5 µg/mL) was 0.0477, the fitness (B. subtilis 168 [1]; first compound 0.125 µg/mL, partner 171 µg/mL) was 0.041 and the fitness (B. subtilis 168 [1]; first compound 0.125 µg/mL, partner 342 µg/mL) was 0.0508. The fitness (B. subtilis 168 [1]; first compound 2 µg/mL, partner 85.5 µg/mL) was 0.0328, the fitness (B. subtilis 168 [1]; first compound 2 µg/mL, partner 171 µg/mL) was 0.02 and the fitness (B. subtilis 168 [1]; first compound 2 µg/mL, partner 342 µg/mL) was 0.021. It also gave a fitness (B. subtilis 168 [1]; first compound 4 µg/mL, partner 85.5 µg/mL) of 0.0283, a fitness (B. subtilis 168 [1]; first compound 4 µg/mL, partner 171 µg/mL) of 0.0228 and a fitness (B. subtilis 168 [1]; first compound 4 µg/mL, partner 342 µg/mL) of 0.0275. For the same compound, the fitness (B. subtilis 168 [1]; first compound 8 µg/mL, partner 85.5 µg/mL) was 0.017, the fitness (B. subtilis 168 [1]; first compound 8 µg/mL, partner 171 µg/mL) was 0.0132 and the fitness (B. subtilis 168 [1]; first compound 8 µg/mL, partner 342 µg/mL) was 0.0182. For the same compound, the fitness (S. aureus DSM 20231 [2]; first compound 0.0075 µg/mL, partner 85.5 µg/mL) was 0.781, the fitness (S. aureus DSM 20231 [2]; first compound 0.0075 µg/mL, partner 171 µg/mL) was 0.876 and the fitness (S. aureus DSM 20231 [2]; first compound 0.0075 µg/mL, partner 342 µg/mL) was 0.898. For the same compound, the fitness (S. aureus DSM 20231 [2]; first compound 0.015 µg/mL, partner 85.5 µg/mL) was 0.712, the fitness (S. aureus DSM 20231 [2]; first compound 0.015 µg/mL, partner 171 µg/mL) was 0.744 and the fitness (S. aureus DSM 20231 [2]; first compound 0.015 µg/mL, partner 342 µg/mL) was 0.773. The fitness (S. aureus DSM 20231 [2]; first compound 0.03 µg/mL, partner 85.5 µg/mL) was 0.619, the fitness (S. aureus DSM 20231 [2]; first compound 0.03 µg/mL, partner 171 µg/mL) was 0.677 and the fitness (S. aureus DSM 20231 [2]; first compound 0.03 µg/mL, partner 342 µg/mL) was 0.669. It also gave a fitness (S. aureus DSM 20231 [2]; first compound 0.06 µg/mL, partner 85.5 µg/mL, one replicate) of 0.684, a fitness (S. aureus DSM 20231 [2]; first compound 0.06 µg/mL, partner 171 µg/mL, one replicate) of 0.666 and a fitness (S. aureus DSM 20231 [2]; first compound 0.06 µg/mL, partner 342 µg/mL, one replicate) of 0.688. For the same compound, the fitness (S. aureus DSM 20231 [2]; first compound 0.12 µg/mL, partner 85.5 µg/mL, one replicate) was 0.481, the fitness (S. aureus DSM 20231 [2]; first compound 0.12 µg/mL, partner 171 µg/mL, one replicate) was 0.468 and the fitness (S. aureus DSM 20231 [2]; first compound 0.12 µg/mL, partner 342 µg/mL, one replicate) was 0.492. For the same compound, the fitness (S. aureus Newman [3]; partner 85.5 µg/mL) was 0.771, the fitness (S. aureus Newman [3]; partner 171 µg/mL) was 0.757 and the fitness (S. aureus Newman [3]; partner 342 µg/mL) was 0.763. The fitness (S. pneumoniae D39V [4]; first compound 0.0037 µg/mL, partner 85.5 µg/mL, one replicate) was 0.927, the fitness (S. pneumoniae D39V [4]; first compound 0.0037 µg/mL, partner 171 µg/mL, one replicate) was 0.926 and the fitness (S. pneumoniae D39V [4]; first compound 0.0037 µg/mL, partner 342 µg/mL, one replicate) was 0.826. The fitness (S. pneumoniae D39V [4]; first compound 0.005 µg/mL, partner 85.5 µg/mL) was ≥ 1, the fitness (S. pneumoniae D39V [4]; first compound 0.005 µg/mL, partner 171 µg/mL) was 0.996 and the fitness (S. pneumoniae D39V [4]; first compound 0.005 µg/mL, partner 342 µg/mL) was ≥ 1. For the same compound, the fitness (S. pneumoniae D39V [4]; first compound 0.0075 µg/mL, partner 85.5 µg/mL, one replicate) was ≥ 1, the fitness (S. pneumoniae D39V [4]; first compound 0.0075 µg/mL, partner 171 µg/mL, one replicate) was 0.93 and the fitness (S. pneumoniae D39V [4]; first compound 0.0075 µg/mL, partner 342 µg/mL, one replicate) was 0.845. The fitness (S. pneumoniae D39V [4]; first compound 0.01 µg/mL, partner 85.5 µg/mL) was ≥ 1, the fitness (S. pneumoniae D39V [4]; first compound 0.01 µg/mL, partner 171 µg/mL) was 0.986 and the fitness (S. pneumoniae D39V [4]; first compound 0.01 µg/mL, partner 342 µg/mL) was 0.974. For the same compound, the fitness (S. pneumoniae D39V [4]; first compound 0.015 µg/mL, partner 85.5 µg/mL, one replicate) was 0.881, the fitness (S. pneumoniae D39V [4]; first compound 0.015 µg/mL, partner 171 µg/mL, one replicate) was 0.923 and the fitness (S. pneumoniae D39V [4]; first compound 0.015 µg/mL, partner 342 µg/mL, one replicate) was 0.849. For the same compound, the fitness (S. pneumoniae D39V [4]; first compound 0.02 µg/mL, partner 85.5 µg/mL) was 0.966, the fitness (S. pneumoniae D39V [4]; first compound 0.02 µg/mL, partner 171 µg/mL) was 0.929 and the fitness (S. pneumoniae D39V [4]; first compound 0.02 µg/mL, partner 342 µg/mL) was 0.874. The Bliss interaction score (B. subtilis 168 [5]) was -0.015, the Bliss interaction score (S. aureus DSM 20231 [6]) was -0.0665 and the Bliss interaction score (S. aureus Newman [7]) was 0.0617. The Bliss interaction score (S. pneumoniae D39V [8]) was 0.0674.
